According to patent US20230398130A1, “METHODS AND COMPOSITIONS FOR DIFFERENTIATING STEM CELLS” (Massachusetts Institute of Technology, priority 2020, published 2023):

Tests used:
ISC-enriched organoids [1] = experiment: Primary screen, 384-well 2.5-D organoid differentiation (ENR+CD, 6 days): basal lysozyme secretion (LYZ.NS); format: cell-based, murine; conditions: for Dose.FC.LYZ.NS: FC vs plate median; for SSMD.LYZ.NS: strictly standardized mean difference
From the text: (§1) High-throughput screening.

ISC-enriched organoids [2] = experiment: Primary screen, 384-well 2.5-D organoid differentiation (ENR+CD, 6 days): carbachol-induced lysozyme secretion (LYZ.S); format: cell-based, murine; conditions: for Dose.FC.LYZ.S: FC vs plate median; for Z.LYZ.S: standard z score; for SSMD.LYZ.S: strictly standardized mean difference
From the text: as §1

ISC-enriched organoids [3] = experiment: Primary screen, 384-well 2.5-D organoid differentiation (ENR+CD, 6 days, Target Selective Inhibitor Library, vs whole-plate median): ATP (CellTiter-Glo 3D, CTG); conditions: for Dose.FC.CTG: FC vs plate median; for SSMD.CTG: strictly standardized mean difference
[4] = Dose 0.08 uM, standard z score of FC
[5] = Dose 0.40 uM, standard z score of FC
[6] = Dose 2.00 uM, standard z score of FC
[7] = Dose 10.00 uM, standard z score of FC
[8] = Dose 0.08 uM, primary screen, standard z score
[9] = Dose 0.40 uM, primary screen, standard z score
[10] = Dose 2.00 uM, primary screen, standard z score
[11] = Dose 10.00 uM, primary screen, standard z score
[12] = primary screen, 1st of the 4 dose lines of the treatment (dose not given)
[13] = primary screen, 2nd of the 4 dose lines of the treatment (dose not given)
[14] = primary screen, 3rd of the 4 dose lines of the treatment (dose not given)
[15] = primary screen, 4th of the 4 dose lines of the treatment (dose not given)

C[C@]12C=CC(=O)N[C@@H]1CC[C@@H]1[C@@H]2CC[C@]2(C)[C@@H](C(=O)Nc3cc(C(F)(F)F)ccc3C(F)(F)F)CC[C@@H]12 [Dutasteride]
Dose.FC.LYZ.NS (ISC-enriched organoids [1]; Dose 0.08 uM, ENR+CD, 6 days): 0.065 log 2 fold change
Z.LYZ.NS (ISC-enriched organoids [1]; [4]): 0.568
Dose.FC.LYZ.NS (ISC-enriched organoids [1]; Dose 0.40 uM, ENR+CD, 6 days): 0.006 log 2 fold change
Z.LYZ.NS (ISC-enriched organoids [1]; [5]): 0.052
Dose.FC.LYZ.NS (ISC-enriched organoids [1]; Dose 2.00 uM, ENR+CD, 6 days): −0.105 log 2 fold change
Z.LYZ.NS (ISC-enriched organoids [1]; [6]): −0.915
Dose.FC.LYZ.NS (ISC-enriched organoids [1]; Dose 10.00 uM, ENR+CD, 6 days): −0.092 log 2 fold change
Z.LYZ.NS (ISC-enriched organoids [1]; [7]): −0.799
Dose.FC.LYZ.S (ISC-enriched organoids [2]; Dose 0.08 uM, ENR+CD, 6 days): 0.001 log 2 fold change
Dose.FC.LYZ.S (ISC-enriched organoids [2]; Dose 0.40 uM, ENR+CD, 6 days): −0.054 log 2 fold change
Dose.FC.LYZ.S (ISC-enriched organoids [2]; Dose 2.00 uM, ENR+CD, 6 days): −0.074 log 2 fold change
Dose.FC.LYZ.S (ISC-enriched organoids [2]; Dose 10.00 uM, ENR+CD, 6 days): −0.151 log 2 fold change
Dose.FC.CTG (ISC-enriched organoids [3]; Dose 0.08 uM, ENR+CD, 6 days): 0.057 log 2 fold change
Z.CTG (ISC-enriched organoids [3]; [4]): 0.137
Dose.FC.CTG (ISC-enriched organoids [3]; Dose 0.40 uM, ENR+CD, 6 days): −0.266 log 2 fold change
Z.CTG (ISC-enriched organoids [3]; [5]): −0.636
Dose.FC.CTG (ISC-enriched organoids [3]; Dose 2.00 uM, ENR+CD, 6 days): −0.098 log 2 fold change
Z.CTG (ISC-enriched organoids [3]; [6]): −0.234
Dose.FC.CTG (ISC-enriched organoids [3]; Dose 10.00 uM, ENR+CD, 6 days): −0.057 log 2 fold change
Z.CTG (ISC-enriched organoids [3]; [7]): −0.137

O=C(c1cn(Cc2cncn2Cc2ccc(Br)cc2)cc1-c1cccc2ccccc12)N1CCOCC1 [LB42708]
Dose.FC.LYZ.NS (ISC-enriched organoids [1]; Dose 0.08 uM, primary screen): −0.116 log 2 fold change
Z.LYZ.NS (ISC-enriched organoids [1]; [8]): −1.010
Dose.FC.LYZ.NS (ISC-enriched organoids [1]; Dose 0.40 uM, primary screen): −0.140 log 2 fold change
Z.LYZ.NS (ISC-enriched organoids [1]; [9]): −1.221
Dose.FC.LYZ.NS (ISC-enriched organoids [1]; Dose 2.00 uM, primary screen): −0.176 log 2 fold change
Z.LYZ.NS (ISC-enriched organoids [1]; [10]): −1.531
Dose.FC.LYZ.NS (ISC-enriched organoids [1]; Dose 10.00 uM, primary screen): −0.182 log 2 fold change
Z.LYZ.NS (ISC-enriched organoids [1]; [11]): −1.587
SSMD.LYZ.NS (ISC-enriched organoids [1]; [12]): −1.118
SSMD.LYZ.NS (ISC-enriched organoids [1]; [13]): −1.157
SSMD.LYZ.NS (ISC-enriched organoids [1]; [14]): −1.034
SSMD.LYZ.NS (ISC-enriched organoids [1]; [15]): −0.939
Dose.FC.LYZ.S (ISC-enriched organoids [2]; Dose 0.08 uM, primary screen): −0.089 log 2 fold change
Dose.FC.LYZ.S (ISC-enriched organoids [2]; Dose 0.40 uM, primary screen): −0.144 log 2 fold change
Dose.FC.LYZ.S (ISC-enriched organoids [2]; Dose 2.00 uM, primary screen): −0.238 log 2 fold change
Dose.FC.LYZ.S (ISC-enriched organoids [2]; Dose 10.00 uM, primary screen): −0.233 log 2 fold change
Z.LYZ.S (ISC-enriched organoids [2]; [12]): −0.576
Z.LYZ.S (ISC-enriched organoids [2]; [13]): −0.934
Z.LYZ.S (ISC-enriched organoids [2]; [14]): −1.539
Z.LYZ.S (ISC-enriched organoids [2]; [15]): −1.509
SSMD.LYZ.S (ISC-enriched organoids [2]; [12]): −0.519
SSMD.LYZ.S (ISC-enriched organoids [2]; [13]): −0.630
SSMD.LYZ.S (ISC-enriched organoids [2]; [14]): −0.965
SSMD.LYZ.S (ISC-enriched organoids [2]; [15]): −0.864
Dose.FC.CTG (ISC-enriched organoids [3]; Dose 0.08 uM, primary screen): −0.072 log 2 fold change
Z.CTG (ISC-enriched organoids [3]; [8]): −0.172
Dose.FC.CTG (ISC-enriched organoids [3]; Dose 0.40 uM, primary screen): −0.342 log 2 fold change
Z.CTG (ISC-enriched organoids [3]; [9]): −0.817
Dose.FC.CTG (ISC-enriched organoids [3]; Dose 2.00 uM, primary screen): −0.116 log 2 fold change
Z.CTG (ISC-enriched organoids [3]; [10]): −0.277
Dose.FC.CTG (ISC-enriched organoids [3]; Dose 10.00 uM, primary screen): −0.706 log 2 fold change
Z.CTG (ISC-enriched organoids [3]; [11]): −1.685
SSMD.CTG (ISC-enriched organoids [3]; [12]): −0.254
SSMD.CTG (ISC-enriched organoids [3]; [13]): −0.531
SSMD.CTG (ISC-enriched organoids [3]; [14]): −0.186
SSMD.CTG (ISC-enriched organoids [3]; [15]): −1.059

O=C(Nc1cccnc1)N1CCC(Cc2cccc(Oc3ccc(C(F)(F)F)cn3)c2)CC1 [PF-3845]
Dose.FC.LYZ.NS (ISC-enriched organoids [1]; Dose 0.08 uM, primary screen): 0.061 log 2 fold change
Z.LYZ.NS (ISC-enriched organoids [1]; [4]): 0.532
Dose.FC.LYZ.NS (ISC-enriched organoids [1]; Dose 0.40 uM, primary screen): −0.077 log 2 fold change
Z.LYZ.NS (ISC-enriched organoids [1]; [5]): −0.668
Dose.FC.LYZ.NS (ISC-enriched organoids [1]; Dose 2.00 uM, primary screen): −0.015 log 2 fold change
Z.LYZ.NS (ISC-enriched organoids [1]; [6]): −0.131
Dose.FC.LYZ.NS (ISC-enriched organoids [1]; Dose 10.00 uM, primary screen): −0.131 log 2 fold change
Z.LYZ.NS (ISC-enriched organoids [1]; [7]): −1.137
Dose.FC.LYZ.S (ISC-enriched organoids [2]; Dose 0.08 uM, primary screen): 0.027 log 2 fold change
Dose.FC.LYZ.S (ISC-enriched organoids [2]; Dose 0.40 uM, primary screen): −0.061 log 2 fold change
Dose.FC.LYZ.S (ISC-enriched organoids [2]; Dose 2.00 uM, primary screen): −0.032 log 2 fold change
Dose.FC.LYZ.S (ISC-enriched organoids [2]; Dose 10.00 uM, primary screen): −0.195 log 2 fold change
Dose.FC.CTG (ISC-enriched organoids [3]; Dose 0.08 uM, primary screen): −0.047 log 2 fold change
Z.CTG (ISC-enriched organoids [3]; [4]): −0.112
Dose.FC.CTG (ISC-enriched organoids [3]; Dose 0.40 uM, primary screen): 0.052 log 2 fold change
Z.CTG (ISC-enriched organoids [3]; [5]): 0.125
Dose.FC.CTG (ISC-enriched organoids [3]; Dose 2.00 uM, primary screen): −0.103 log 2 fold change
Z.CTG (ISC-enriched organoids [3]; [6]): −0.246
Dose.FC.CTG (ISC-enriched organoids [3]; Dose 10.00 uM, primary screen): −0.286 log 2 fold change
Z.CTG (ISC-enriched organoids [3]; [7]): −0.684

O=C(O)c1ccc(Nc2ncc3c(n2)-c2ccc(Cl)cc2C(c2c(F)cccc2F)=NC3)cc1 [MLN8054]
SSMD.LYZ.NS (ISC-enriched organoids [1]; [12]): 0.618
SSMD.LYZ.NS (ISC-enriched organoids [1]; [13]): 0.061
SSMD.LYZ.NS (ISC-enriched organoids [1]; [14]): −0.713
SSMD.LYZ.NS (ISC-enriched organoids [1]; [15]): −0.870
Z.LYZ.S (ISC-enriched organoids [2]; [12]): 0.274
Z.LYZ.S (ISC-enriched organoids [2]; [13]): 1.081
Z.LYZ.S (ISC-enriched organoids [2]; [14]): −0.562
Z.LYZ.S (ISC-enriched organoids [2]; [15]): −1.274
SSMD.LYZ.S (ISC-enriched organoids [2]; [12]): 0.241
SSMD.LYZ.S (ISC-enriched organoids [2]; [13]): 0.554
SSMD.LYZ.S (ISC-enriched organoids [2]; [14]): −0.486
SSMD.LYZ.S (ISC-enriched organoids [2]; [15]): −0.964
Z.CTG (ISC-enriched organoids [3]; [4]): 0.063
Z.CTG (ISC-enriched organoids [3]; [5]): 0.033
Z.CTG (ISC-enriched organoids [3]; [6]): −1.111
Z.CTG (ISC-enriched organoids [3]; [7]): −1.191
SSMD.CTG (ISC-enriched organoids [3]; [12]): 0.080
SSMD.CTG (ISC-enriched organoids [3]; [13]): 0.035
SSMD.CTG (ISC-enriched organoids [3]; [14]): −0.959
SSMD.CTG (ISC-enriched organoids [3]; [15]): −1.480
